Assay results: patent publication US20100267561A1, “HERBICIDAL PYRIDAZINONE DERIVATIVES” (priority 2007, published 2010)

Experiments:
Assay type in all cases: in vivo
[1] = system: pigweed (Amaranthus retroflexus); assay: Test A pre-/postemergence plant response
Summary of the method: (§1)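 Seeds in loam soil/sand blend treated preemergence by directed soil spray, with simultaneous postemergence spray on 2–10 cm plants at one- to two-leaf stage; compounds in non-phytotoxic solvent with surfactant. Injury visually rated versus untreated controls after about 10 days in greenhouse, 0 (no effect) to 100 (complete control).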

[2] = system: wheat (Triticum aestivum); assay: Test A pre-/postemergence plant response
Summary of the method: as §1

[3] = system: morningglory (Ipomoea coccinea); assay: Test A pre-/postemergence plant response
Summary of the method: as §1

[4] = system: corn (Zea mays); assay: Test A pre-/postemergence plant response
Summary of the method: as §1

[5] = system: large crabgrass (Digitaria sanguinalis); assay: Test A pre-/postemergence plant response
Summary of the method: as §1

[6] = system: velvetleaf (Abutilon theophrasti); assay: Test A pre-/postemergence plant response
Summary of the method: as §1

[7] = system: giant foxtail (Setaria faberi); assay: Test A pre-/postemergence plant response
Summary of the method: as §1

[8] = system: barnyardgrass (Echinochloa crus-galli); assay: Test A pre-/postemergence plant response
Summary of the method: as §1

[9] = system: winter barley (Hordeum vulgare); assay: Test B postemergence plant response; conditions: Postemergence
Summary of the method: (§2)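 Postemergence greenhouse test; plants at 2 to 18 cm (1- to 4-leaf stage) given formulated test chemical, held 13 to 15 days, then visually rated against untreated controls on a 0 (no effect) to 100 (complete control) scale; dash means no result.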

[10] = system: windgrass (Apera spica-venti); assay: Test B postemergence plant response; conditions: Postemergence
Summary of the method: as §2

[11] = system: chickweed (Stellaria media); assay: Test B postemergence plant response; conditions: Postemergence
Summary of the method: as §2

[12] = system: canarygrass (Phalaris minor); assay: Test B postemergence plant response; conditions: Postemergence
Summary of the method: as §2

[13] = Postemergence, 125 g ai/ha, 0 to 100 scale, 0 no effect, 100 complete control
[14] = Postemergence, 500 g ai/ha, 0 to 100 scale, 0 no effect, 100 complete control
[15] = Preemergence, 125 g ai/ha, 0 to 100 scale (0 no effect, 100 complete control)
[16] = Preemergence, 500 g ai/ha, 0 to 100 scale (0 no effect, 100 complete control)
[17] = 31 g ai/ha, scale 0 to 100, 0 no effect, 100 complete control

SMILES: CCc1cc(-c2ccc(C(F)(F)F)cc2)nn1-c1c(OC(=O)OC(C)C)cnn(C)c1=O [Compound 12]
- Plant response rating, Pigweed [1, 13]: 0
- Plant response rating, Pigweed [1, 14]: 0
- Plant response rating, Pigweed [1, 15]: 0
- Plant response rating, Pigweed [1, 16]: 0
- Plant response rating, Wheat [2, 13]: 70
- Plant response rating, Wheat [2, 14]: 90
- Plant response rating, Wheat [2, 15]: 90
- Plant response rating, Wheat [2, 16]: 100
- Plant response rating, Morningglory [3, 13]: 0
- Plant response rating, Morningglory [3, 14]: 0
- Plant response rating, Morningglory [3, 15]: 0
- Plant response rating, Morningglory [3, 16]: 0
- Plant response rating, Corn [4, 13]: 90
- Plant response rating, Corn [4, 14]: 90
- Plant response rating, Corn [4, 15]: 80
- Plant response rating, Corn [4, 16]: 90
- Plant response rating, Crabgrass, Large [5, 13]: 90
- Plant response rating, Crabgrass, Large [5, 14]: 100
- Plant response rating, Crabgrass, Large [5, 15]: 100
- Plant response rating, Crabgrass, Large [5, 16]: 100
- Plant response rating, Velvetleaf [6, 13]: 0
- Plant response rating, Velvetleaf [6, 14]: 0
- Plant response rating, Velvetleaf [6, 15]: 0
- Plant response rating, Velvetleaf [6, 16]: 0
- Plant response rating, Foxtail, Giant [7, 13]: 80
- Plant response rating, Foxtail, Giant [7, 14]: 100
- Plant response rating, Foxtail, Giant [7, 15]: 100
- Plant response rating, Foxtail, Giant [7, 16]: 100
- Plant response rating, Barnyardgrass [8, 13]: 90
- Plant response rating, Barnyardgrass [8, 14]: 100
- Plant response rating, Barnyardgrass [8, 15]: 100
- Plant response rating, Barnyardgrass [8, 16]: 100
- Plant response rating, Barley ([9]; 16 g ai/ha, scale 0 to 100, 0 no effect, 100 complete control): 80
- Plant response rating, Barley [9, 17]: 95
- Plant response rating, Barley ([9]; 62 g ai/ha, scale 0 to 100): 100
- Plant response rating, Barley ([9]; 125 g ai/ha, scale 0 to 100): 100
- Plant response rating, Windgrass ([10]; 16 g ai/ha, scale 0 to 100): 100
- Plant response rating, Windgrass [10, 17]: 100
- Plant response rating, Windgrass ([10]; 62 g ai/ha, scale 0 to 100): 100
- Plant response rating, Windgrass ([10]; 125 g ai/ha, scale 0 to 100): 100
- Plant response rating, Chickweed ([11]; 16 g ai/ha, scale 0 to 100): 0
- Plant response rating, Chickweed [11, 17]: 0
- Plant response rating, Chickweed ([11]; 62 g ai/ha, scale 0 to 100): 0
- Plant response rating, Chickweed ([11]; 125 g ai/ha, scale 0 to 100): 0
- Plant response rating, Canarygrass ([12]; 16 g ai/ha, scale 0 to 100): 100
- Plant response rating, Canarygrass [12, 17]: 100
- Plant response rating, Canarygrass ([12]; 62 g ai/ha, scale 0 to 100): 100
- Plant response rating, Canarygrass ([12]; 125 g ai/ha, scale 0 to 100): 100

SMILES: Cc1nn(C)c(=O)c(-n2nc(-c3ccc(Cl)cc3)cc2C)c1O [Compound 15]
- Plant response rating, Pigweed [1, 13]: 0
- Plant response rating, Pigweed [1, 14]: 0
- Plant response rating, Pigweed [1, 15]: 0
- Plant response rating, Pigweed [1, 16]: 0
- Plant response rating, Wheat [2, 13]: 50
- Plant response rating, Wheat [2, 14]: 60
- Plant response rating, Wheat [2, 15]: 60
- Plant response rating, Wheat [2, 16]: 80
- Plant response rating, Morningglory [3, 13]: 0
- Plant response rating, Morningglory [3, 14]: 0
- Plant response rating, Morningglory [3, 15]: 0
- Plant response rating, Morningglory [3, 16]: 0
- Plant response rating, Corn [4, 13]: 70
- Plant response rating, Corn [4, 14]: 90
- Plant response rating, Corn [4, 15]: 50
- Plant response rating, Corn [4, 16]: 90
- Plant response rating, Crabgrass, Large [5, 13]: 90
- Plant response rating, Crabgrass, Large [5, 14]: 100
- Plant response rating, Crabgrass, Large [5, 15]: 80
- Plant response rating, Crabgrass, Large [5, 16]: 100
- Plant response rating, Velvetleaf [6, 13]: 0
- Plant response rating, Velvetleaf [6, 14]: 0
- Plant response rating, Velvetleaf [6, 15]: 0
- Plant response rating, Velvetleaf [6, 16]: 0
- Plant response rating, Foxtail, Giant [7, 13]: 90
- Plant response rating, Foxtail, Giant [7, 14]: 100
- Plant response rating, Foxtail, Giant [7, 15]: 90
- Plant response rating, Foxtail, Giant [7, 16]: 100
- Plant response rating, Barnyardgrass [8, 13]: 100
- Plant response rating, Barnyardgrass [8, 14]: 100
- Plant response rating, Barnyardgrass [8, 15]: 100
- Plant response rating, Barnyardgrass [8, 16]: 100
- Plant response rating, Barley [9, 17]: 10
- Plant response rating, Barley ([9]; 62 g ai/ha, scale 0 to 100): 10
- Plant response rating, Barley ([9]; 125 g ai/ha, scale 0 to 100): 90
- Plant response rating, Windgrass [10, 17]: 90
- Plant response rating, Windgrass ([10]; 62 g ai/ha, scale 0 to 100): 90
- Plant response rating, Windgrass ([10]; 125 g ai/ha, scale 0 to 100): 100
- Plant response rating, Windgrass ([10]; 250 g ai/ha, scale 0 to 100): 100
- Plant response rating, Chickweed [11, 17]: 0
- Plant response rating, Chickweed ([11]; 62 g ai/ha, scale 0 to 100): 0
- Plant response rating, Chickweed ([11]; 125 g ai/ha, scale 0 to 100): 0
- Plant response rating, Chickweed ([11]; 250 g ai/ha, scale 0 to 100): 0
- Plant response rating, Canarygrass [12, 17]: 35
- Plant response rating, Canarygrass ([12]; 62 g ai/ha, scale 0 to 100): 35
- Plant response rating, Canarygrass ([12]; 125 g ai/ha, scale 0 to 100): 85

SMILES: CCc1cc(-c2ccc(C(F)(F)F)cc2)nn1-c1c(O)c(C)nn(C)c1=O [Compound 16]
- Plant response rating, Pigweed [1, 13]: 0
- Plant response rating, Pigweed [1, 14]: 0
- Plant response rating, Pigweed [1, 15]: 0
- Plant response rating, Pigweed [1, 16]: 0
- Plant response rating, Wheat [2, 13]: 70
- Plant response rating, Wheat [2, 14]: 90
- Plant response rating, Wheat [2, 15]: 70
- Plant response rating, Wheat [2, 16]: 100
- Plant response rating, Morningglory [3, 13]: 0
- Plant response rating, Morningglory [3, 14]: 0
- Plant response rating, Morningglory [3, 15]: 0
- Plant response rating, Morningglory [3, 16]: 0
- Plant response rating, Corn [4, 13]: 90
- Plant response rating, Corn [4, 14]: 100
- Plant response rating, Corn [4, 15]: 70
- Plant response rating, Corn [4, 16]: 90
- Plant response rating, Crabgrass, Large [5, 13]: 90
- Plant response rating, Crabgrass, Large [5, 14]: 100
- Plant response rating, Crabgrass, Large [5, 15]: 90
- Plant response rating, Crabgrass, Large [5, 16]: 100
- Plant response rating, Velvetleaf [6, 13]: 0
- Plant response rating, Velvetleaf [6, 14]: 0
- Plant response rating, Velvetleaf [6, 15]: 0
- Plant response rating, Velvetleaf [6, 16]: 0
- Plant response rating, Foxtail, Giant [7, 13]: 100
- Plant response rating, Foxtail, Giant [7, 14]: 100
- Plant response rating, Foxtail, Giant [7, 15]: 100
- Plant response rating, Foxtail, Giant [7, 16]: 100
- Plant response rating, Barnyardgrass [8, 13]: 90
- Plant response rating, Barnyardgrass [8, 14]: 100
- Plant response rating, Barnyardgrass [8, 15]: 100
- Plant response rating, Barnyardgrass [8, 16]: 100
- Plant response rating, Barley [9, 17]: 90
- Plant response rating, Barley ([9]; 62 g ai/ha, scale 0 to 100): 90
- Plant response rating, Barley ([9]; 125 g ai/ha, scale 0 to 100): 95
- Plant response rating, Barley ([9]; 250 g ai/ha, scale 0 to 100): 98
- Plant response rating, Windgrass [10, 17]: 90
- Plant response rating, Windgrass ([10]; 62 g ai/ha, scale 0 to 100): 100
- Plant response rating, Windgrass ([10]; 125 g ai/ha, scale 0 to 100): 100
- Plant response rating, Windgrass ([10]; 250 g ai/ha, scale 0 to 100): 100
- Plant response rating, Chickweed [11, 17]: 0
- Plant response rating, Chickweed ([11]; 62 g ai/ha, scale 0 to 100): 0
- Plant response rating, Chickweed ([11]; 125 g ai/ha, scale 0 to 100): 0
- Plant response rating, Chickweed ([11]; 250 g ai/ha, scale 0 to 100): 0
- Plant response rating, Canarygrass [12, 17]: 70
- Plant response rating, Canarygrass ([12]; 62 g ai/ha, scale 0 to 100): 95
